Source: US20060039937A1, “Composition having antioxidant properties” (priority 2003, published 2006)
Values after ≈ are worked out from the molar mass of the structure shown. “Also recorded” adds a separate entry of the source. One block for each compound: values may come before it.

Key:
[1] = DPPH assay (free-radical scavenging); format: biochemical; conditions: for DPPH free-radical scavenging: amount of antioxidant (in mg) needed to inhibit 1 mmol of DPPH; for antioxidative action (DPPH test), in words: comparison with vitamin C; for AE (×10^−3): anti-free-radical efficiency from EC50 and TEC50; for TEC50: reaction time necessary to achieve EC50
Protocol: In the presence of a free-radical scavenger, the electron is paired, the absorption disappears, and the decoloration proceeds stoichiometrically taking into account the electrons taken up. The absorbance is measured in a photometer, The anti-free-radical property of the substance to be tested is determined by measuring the concentration at which 50% of the 2,2-diphenyl-1-picrylhydrazyl employed has reacted with the free-radical scavenger. This concentration is expressed as EC50, a value which can be considered to be a property of the substance under the given measurement conditions. […] The EC50 value here is a measure of the capacity of the respective compound to scavenge free radicals. The lower the EC50 value, the higher the capacity to scavenge free radicals. […] A further important aspect for the action of the antioxidants is the time in which this EC50 value is reached. This time, measured in minutes, gives the TEC50 value, which allows a conclusion to be drawn on the rate at which these antioxidants scavenge free radicals. The anti-free-radical efficiency (AE) (described in C. Sanchez-Moreno, J. A. Larrauri and F. Saura-Calixto in J. Sci. […] Aliquots of this solution are mixed with various concentrations of the compound to be tested. […] The lower this value, the higher the corresponding antioxidant activity. The reaction time necessary to achieve this value is indicated in the value TEC50 (in minutes). The anti-free-radical efficiency (AE) is obtained from this in accordance with the following relationship: [formula] A higher AE value here indicates a higher activity against free radicals.

[2] = TEAC assay (ABTS radical cation decolorisation); format: biochemical; conditions: comparative experiment with starting substances
Protocol: This free-radical cation has absorption maxima at 645 nm, 734 nm and 815 nm. The addition of an antioxidant to the ABTS free-radical cation results in reduction to ABTS. The magnitude of this conversion depends on the activity and concentration of the antioxidant and on the duration of the reaction. The reduction is evident from the decrease in absorbance, and the percentage of reduced ABTS is determined as a function of concentration and time and calculated relative to the reactivity of trolox (TEAC). […] This method can be used for the determination of antioxidants which are soluble in water or organic solvents (according to: Re, […]., Yang, M., & Rice, E. C. (1999) Antioxidant activity applying an improved ABTS radical cation decolorisation assay. Free Radical Biology and Medicine, 26, 1231-1237). The absorbance values measured after six minutes are used. The percentage of reduced ABTS is plotted against the concentration of the active ingredient (ASG I from Example 1 or trolox), and the slope of the lines is determined. In order to determine the TEAC value of ASG I, […].

[3] = Lipid assay (ABAP-induced oxidation of linoleic acid in SDS micelles); format: biochemical; conditions: for Standardised to tocopherol (relative antioxidative efficiency, RAE): % inhibition standardised to tocopherol; for AE/20 min: absorbance change at 236 nm, Reference 0.4567; for Lipid test: comparative experiment, standardised to tocopherol; for % inhibition: inhibition of linoleic acid oxidation versus reference
Protocol: ABAP, which is water-soluble per se, is dispersed in SDS micelles. Linoleic acid (cis,cis-9,12-octadecadienoic acid) is likewise dispersed in SDS micelles. The free radicals cause the oxidation of linoleic acid to the isomer having conjugated double bonds. The formation of the conjugated double bond can be determined through the increase in the absorbance at 236 nm. The ability of the antioxidant to inhibit the rate of formation is determined relative to the tocopherol standard (in accordance with: Pryor, W. A., Cornicelli, […]., & Wu, M. (1993) A rapid screening test to determine the antioxidant potencies of natural and synthetic antioxidants. J Org Chem, 58, 3521-3532).

[4] = Hypoxanthine-xanthine oxidase test (superoxide scavenging, NBT reduction); format: biochemical; conditions: value at which 50% of the original superoxide free-radical anion concentration is still present
Protocol: Superoxide Free-Radical Anion Scavenging Efficiency of ASG I (Hypoxanthine-Xanthine Oxidase Test) Reaction of fresh xanthine oxidase with hypoxanthine in the presence of EDTA in aqueous solution gives superoxide free-radical anions. The free-radical anions are determined spectrophotometrically via the reduction of nitroblue tetrazolium (NBT) to nitroblue diformazan. The reduction is evident from the […] in the absorption band at 560 nm. […] The IC50 is the value at which 50% of the original superoxide free-radical anion concentration is still present. The lower this value, the higher the corresponding antioxidant activity.

[5] = Rancimat assay (oxidation stability of soya oil); conditions: for Protection factor: 0.1% by weight in 4 g of soya oil at 120° and 15 l of air/h
Excerpt: The Rancimat method for determination of the oxidation stability of fats and oils is known from the literature (Läubli M. W., Bruttel P. A.: “Determination of the oxidation stability of fats and oils—comparison between the active oxygen method (AOCS Cd 12-57) and the Rancimat method”, Fat. Sci. Technol. 90; 56-58 (1988); or Metrohm “Application Bulletin” Metrohm, No. 232/1 d, “Determination of the antioxidant activity by the Rancimat method”; handbook: “Rancimat 679”, Metrohm, instrument for the determination of oxidation and thermal stability, use instructions 8.679.1001, Metrohm AG, CH-9100 Herisau (Switzerland)).

[6] = Time dependence of the antioxidative activity (DPPH test after storage); conditions: 1 mol % solution in EtOH:H2O 1:1, storage for 90 days at 40° C.
[7] = Storage stability / hydrolysis of ASG I in EtOH:H2O solution; format: physicochemical
Protocol: The reducing action of each substance (DPPH test) as a function of time is investigated and expressed as the amount of substance in mg required to inhibit 1 mmol of the DPPH free radical (FIG. 1).
Under storage conditions (90 days at 40° C., 1 mol-percent solution in EtOH:H2O), only 50% of the initial concentration of ASG I is retained after 30 days.

tyrosinase = assay: Tyrosinase activity test with substrate L-tyrosine; format: biochemical; conditions: tyrosinase 10 units, L-tyrosine 4 mM, 37° C., 1 hour, OD 450 nm
Protocol: Tyrosinase is the key enzyme in the synthesis of melanin. Substances which inhibit tyrosinase activity are therefore suitable as skin-lightening active ingredients. The action is also investigated with L-tyrosine as substrate and compared with that of reference substances. The substances and tyrosinase (10 units) are pre-incubated on ice for 10 minutes; tyrosine is then added (final concentration 4 mM), and the plates are incubated at 37° C. for 1 hour. The optical density at each test point is measured at 450 nm against the corresponding control without enzyme.

[8] = no shift in absorbance of the complex induced by N3^−
[9] = test described in Gan, Seib 1998; cited from earlier work

SMILES: O=C1O[C@H]([C@@H](O)COC(=O)c2ccc(O)c(O)c2)C(O)=C1O [Substance 3, L-ascorbyl 6-O-(3,4-dihydroxy)benzoate]
DPPH free-radical scavenging [1]: 56 mg
antioxidative action (DPPH test), in words [1]: great antioxidative action

SMILES: O=C1O[C@H]([C@@H](O)COC(=O)c2cccc(O)c2)C(O)=C1O [Substance 6, L-ascorbyl 6-O-(3-hydroxy)benzoate]
DPPH free-radical scavenging [1]: 193 mg

SMILES: COc1cc(C(=O)OC[C@H](O)[C@H]2OC(=O)C(O)=C2O)cc(OC)c1O [Substance 2, L-ascorbyl 6-O-(4-hydroxy-3,5-dimethoxy)benzoate]
DPPH free-radical scavenging [1]: 185 mg
antioxidative action (DPPH test), in words [1]: virtually the same reducing action as vitamin C

SMILES: COc1cccc(C(=O)OC[C@H](O)[C@H]2OC(=O)C(O)=C2O)c1 [Substance 7, L-ascorbyl 6-O-(3-methoxy)benzoate]
DPPH free-radical scavenging [1]: >1000 mg

SMILES: O=C1O[C@H]([C@@H](O)COC(=O)c2cc(O)c(O)c(O)c2)C(O)=C1O [ASG I, L-ascorbyl 6-gallate]
DPPH free-radical scavenging [1]: 54 mg
AE (×10^−3) [1]: 69.4 ×10^−3
antioxidative action (DPPH test), in words [1]: significantly greater antioxidative action than vitamin C or derivatives thereof
TEC50 [1]: 180 min
TEAC [2]: 3.65
Standardised to tocopherol (relative antioxidative efficiency, RAE) [3]: 0.69
activity relative to tocopherol ([3]; RAE expressed as percent of the activity of tocopherol): 69%
AE/20 min [3]: 0.1594
Lipid test [3]: 0.69
% inhibition [3]: 65.1%
IC50 [4]: 9.3 µg/mL (≈ 28.3 µM)
Protection factor ([5]; dissolved in ethanol): 3.07
Protection factor ([5]; substance added pure): 1.22
solubility in soya oil ([5]; pure substance in soya oil, Rancimat test): only dissolves partially
antioxidative action after storage (DPPH test) [6]: retained
initial concentration retained ([7]; 1 mol-percent solution in EtOH:H2O, 40° C., after 30 days): 50%
stability, in words ([7]; pure substance versus aqueous solution): stable as the pure substance; also recorded: undergo hydrolysis in aqueous solution
IC50 (tyrosinase): 0.109 mM
complex formation with Fe^3+ [8]: strong complex-forming properties
effectiveness as antioxidant, in words [9]: less effective than propyl gallate, but more effective than L-ascorbic acid or L-ascorbyl palmitate

SMILES: COc1ccc(C(=O)OC[C@H](O)[C@H]2OC(=O)C(O)=C2O)cc1 [Substance 5, L-ascorbyl 6-O-(4-methoxy)benzoate]
DPPH free-radical scavenging [1]: 161 mg
antioxidative action (DPPH test), in words [1]: virtually the same reducing action as vitamin C

SMILES: Cc1c(C)c2c(c(C)c1O)CCC(C)(CCCC(C)CCCC(C)CCCC(C)C)O2 (centres unmarked) [Vitamin E, reference compound]
Protection factor ([5]; substance added pure): 0.94

IC50 [4]: 388 µg/mL (≈ 1550 µM)
SMILES: Cc1c(C)c2c(c(C)c1O)CCC(C)(C(=O)O)O2 (centres unmarked) [Trolox]

SMILES: O=C(O)c1cc(O)c(O)c(O)c1 [Gallic acid, reference compound]
TEAC [2]: 2.76
Lipid test [3]: 0.37

SMILES: CCCCCCCCCCCCCCCC(=O)OC[C@H](O)[C@H]1OC(=O)C(O)=C1O [Ascorbyl palmitate, 6-ascorbyl palmitate, reference compound]
DPPH free-radical scavenging [1]: 211 mg
Protection factor ([5]; substance added pure): 2.01
antioxidative action after storage (DPPH test) [6]: lose their antioxidative action

SMILES: O=C1O[C@H]([C@@H](O)COC(=O)c2ccc(O)cc2)C(O)=C1O [Substance 4, L-ascorbyl 6-O-(4-hydroxy)benzoate]
DPPH free-radical scavenging [1]: 185 mg
antioxidative action (DPPH test), in words [1]: virtually the same reducing action as vitamin C

SMILES: Cc1c(C)c2c(c(C)c1O)CCC(C)(CCCC(C)CCCC(C)CCCC(C)C)O2 (centres unmarked) [Tocopherol, reference compound]
AE (×10^−3) [1]: 64.1 ×10^−3
TEC50 [1]: <60 min
Standardised to tocopherol (relative antioxidative efficiency, RAE) [3]: 1.00
AE/20 min [3]: 0.0242
% inhibition [3]: 94.7%

IC50 (tyrosinase): 33.1 mM
SMILES: O=C1O[C@H]([C@@H](O)CO)C([O-])=C1OP(=O)([O-])[O-].O=C1O[C@H]([C@@H](O)CO)C([O-])=C1OP(=O)([O-])[O-].[Mg+2].[Mg+2].[Mg+2] [MAP, magnesium ascorbyl phosphate, reference compound]
DPPH free-radical scavenging [1]: >1000 mg

SMILES: O=c1c(O)c(-c2ccc(O)c(O)c2)oc2cc(O)cc(O)c12 [3,5,7,3′,4′-Pentahydroxyflavone, reference compound]
AE (×10^−3) [1]: 83 ×10^−3
TEC50 [1]: 120 min

SMILES: O=C1O[C@H]([C@@H](O)CO)C(O)=C1O [Vitamin C, ascorbic acid, reference compound]
DPPH free-radical scavenging [1]: 102 mg
AE (×10^−3) [1]: 61.72 ×10^−3
TEC50 [1]: <60 min
TEAC [2]: 1
Lipid test [3]: 0.09
IC50 [4]: 25.5 µg/mL (≈ 145 µM)
antioxidative action after storage (DPPH test) [6]: lose their antioxidative action
